Reference: patent US20250281464A1, “TREATMENT OF PATHOGENIC NEISSERIA SP. INFECTION WITH TRIAZOLE ANTIFUNGAL AGENTS” (Virginia Tech Intellectual Properties, Inc., priority 2022, published 2025)
In brackets after ≈: the same amount, converted by molar mass. Where two headings read alike, the source gives them in different places.

Legend:
L. jensenii = assay: MIC against commensal vaginal Lactobacillus strains; format: cell-based, Lactobacillus jensenii; conditions: for MIC: Lactobacillus jensenii
Excerpt: (§1) N. gonorrhoeae pathogenesis greatly depends on colonization of the reproductive tract. One of the natural barriers of such colonization is an intact healthy microbiome. Species of lactobacilli present in the genitourinary tract play a significant role in hindering colonization by Neisseria(1).
(§2) A healthy vaginal microbiome that is dominated by Lactobacillus spp. is less susceptible to N. gonorrhoeae infection and other sexually transmitted diseases (STDs). […] We tested the activity of azoles against important members of healthy vaginal microbiota that inhibit N. gonorrhoeae colonization.

L. crispatus = assay: as above; format: cell-based, Lactobacillus crispatus; conditions: for MIC: Lactobacillus crispatus
Excerpt: as §1, §2

N. gonorrhoeae isolates = assay: MIC against panel of N. gonorrhoeae clinical isolates; format: cell-based, Neisseria gonorrhoeae; conditions: for MIC50: read-out: MIC50; for MIC90: read-out: MIC90
[1] = tested on: intracellular N. gonorrhoeae FA1090 in endocervical cells (End1/E6E7); conditions: literature statement [1, 3, 5]; cited from earlier work
Lactobacillus rhamnosus = assay: MIC against normal gut microbiota; format: cell-based; conditions: Lactobacillus rhamnosus (1 strain)
Excerpt: (§3) Disrupting the intestinal microbiota using broad-spectrum antimicrobial therapy increases the susceptibility of hosts to C. difficile colonization.

Enterococcus faecium = assay: MIC against normal gut microbiota; format: cell-based; conditions: Enterococcus faecium (1 strain)
Excerpt: as §3

Lactobacillus brevis = assay: MIC against normal gut microbiota; format: cell-based; conditions: Lactobacillus brevis (1 strain)
Excerpt: as §3

Bacteroides dorei = assay: MIC against normal gut microbiota; format: cell-based; conditions: Bacteroides dorei (2 strains)
Excerpt: as §3

Lactobacillus casei = assay: MIC against normal gut microbiota; format: cell-based; conditions: Lactobacillus casei (1 strain)
Excerpt: as §3

Staphylococcus aureus = assay: MIC against normal gut microbiota; format: cell-based; conditions: Staphylococcus aureus (1 strain)
Excerpt: as §3

[2] = MIC against normal gut microbiota; format: cell-based
Excerpt: as §3

[3] = tested on: Bifidobacterium angulatum; assay: MIC against normal gut microbiota; format: cell-based; conditions: Bifidobacterium angulatum (1 strain)
Excerpt: as §3

Enterococcus faecalis = assay: MIC against normal gut microbiota; format: cell-based; conditions: Enterococcus faecalis (1 strain)
Excerpt: as §3

Escherichia coli = assay: MIC against normal gut microbiota; format: cell-based; conditions: Escherichia coli (1 strain)
Excerpt: as §3

N. meingitidis = assay: MIC against Neisseria spp.; format: cell-based, Neisseria meningitidis; conditions: N. meingitidis (5 strains)
[4] = tested on: commensal vaginal lactobacilli strains; assay: MIC against all commensal vaginal Lactobacillus strains tested; format: cell-based, Lactobacillus spp.; conditions: all species/strains of Lactobacillus tested (Example 2); read-out: MIC
Excerpt: as §1, §2

N. lactamica = assay: MIC against Neisseria spp.; format: cell-based; conditions: N. lactamica (1 strain)
Excerpt: (§4) Intrigued by the specificity and potent activity of azoles against N. gonorrhoeae, we evaluated the extent of the azoles' antibacterial activity against other Neisseria species (Table 8).

N. flavescens = assay: MIC against Neisseria spp.; format: cell-based; conditions: N. flavescens (1 strain)
Excerpt: as §4

N. mucosa = assay: MIC against Neisseria spp.; format: cell-based; conditions: N. mucosa (1 strain)
Excerpt: as §4

L. johnsonii = assay: MIC against commensal vaginal Lactobacillus strains; format: cell-based, Lactobacillus johnsonii
Excerpt: as §1, §2

L. gasseri = assay: as above; format: cell-based, Lactobacillus gasseri; conditions: for MIC: Lactobacillus gasseri
Excerpt: as §1, §2

N. gonorrhoeae = assay: Post-antibiotic effect (PAE) against N. gonorrhoeae; format: cell-based, Neisseria gonorrhoeae; conditions: 1 h exposure at 10×MIC
Excerpt: Determining the PAE of a new antimicrobial is an important step for dosing and has clinical importance.

[5] = tested on: resistant N. gonorrhoeae isolates; assay: MIC against resistant N. gonorrhoeae isolates by agar dilution; format: cell-based, Neisseria gonorrhoeae
[6] = Neisseria gonorrhoeae, Table 1, 104 N. gonorrhoeae isolates
[7] = Neisseria gonorrhoeae, Table 3, 103 N. gonorrhoeae isolates with different resistance profiles

With CO/N=C(\C(=O)N[C@@H]1C(=O)N2C(C(=O)O)=C(CSc3nc(=O)c(=O)[nH]n3C)CS[C@H]12)c1csc(N)n1 [Ceftriaxone] the MIC (L. jensenii; L. jensenii HM-105) was at most 0.5 µg/mL, the MIC (L. jensenii; L. jensenii HM-372) was at most 0.5 µg/mL and the MIC (L. jensenii; L. jensenii HM-374) was 1 µg/mL (≈ 1.8 µM). For the same compound, the MIC (L. jensenii; L. jensenii HM-639) was at most 0.5 µg/mL, the MIC (L. jensenii; L. jensenii HM-640) was at most 0.5 µg/mL and the MIC (L. jensenii; L. jensenii HM-645) was at most 0.5 µg/mL. For the same compound, the MIC (L. jensenii; L. jensenii HM-646) was at most 0.5 µg/mL, the “MIC Range” value (L. jensenii; Table 6, L. jensenii (7 strains)) was at most 1 to 2 µg/mL and the MIC (L. crispatus; L. crispatus HM-103) was 2 µg/mL (≈ 3.61 µM). For the same compound, the MIC (L. crispatus; L. crispatus HM-371) was 1 µg/mL (≈ 1.8 µM), the MIC (L. crispatus; L. crispatus HM-638) was 4 µg/mL (≈ 7.21 µM) and the “MIC Range” value (L. crispatus; Table 6, L. crispatus (3 strains)) was at most 1 to 2 µg/mL. It also gave an MIC50 (N. gonorrhoeae isolates; [6]) of 0.03 µg/mL (≈ 0.0541 µM), an MIC90 (N. gonorrhoeae isolates; [6]) of 0.06 µg/mL (≈ 0.108 µM) and an MIC50 (N. gonorrhoeae isolates; [7]) of 0.03 µg/mL (≈ 0.0541 µM). The MIC90 (N. gonorrhoeae isolates; [7]) was 0.06 µg/mL (≈ 0.108 µM), the MIC (N. gonorrhoeae isolates; Neisseria gonorrhoeae, 103 N. gonorrhoeae isolates, read-out: highest MIC value) was 2 µg/mL (≈ 3.61 µM) and the “MIC Range” value (N. gonorrhoeae isolates; Table 1, 104 N. gonorrhoeae isolates) was 1 to 2000 ng/mL. The “MIC Range” value (N. gonorrhoeae isolates; Table 3, 103 N. gonorrhoeae isolates with different resistance profiles) was 1 to 2000 ng/mL, the “ability to clear intracellular N. gonorrhoeae” value [1] was “unable to clear intracellular N. gonorrhoeae” and the “MIC Range” value (Lactobacillus rhamnosus) was 16 µg/mL (≈ 28.9 µM). For the same compound, the “MIC Range” value (Enterococcus faecium) was 8 µg/mL (≈ 14.4 µM), the “MIC Range” value (Lactobacillus brevis) was 0.5 µg/mL (≈ 0.902 µM) and the “MIC Range” value (Bacteroides dorei) was 4 to 16 µg/mL. The “MIC Range” value (Lactobacillus casei) was 16 µg/mL (≈ 28.9 µM), the “MIC Range” value (Staphylococcus aureus) was 2 µg/mL (≈ 3.61 µM) and the “MIC Range” value ([2]; Bacteroides adolescentis (2 strains)) was 0.125 µg/mL (≈ 0.225 µM). The “MIC Range” value ([2]; Bacteroides breve (2 strains)) was 1 to 4 µg/mL, the “MIC Range” value ([2]; Bacteroides longum (2 strains)) was 4 µg/mL (≈ 7.21 µM) and the “MIC Range” value [3] was 0.125 µg/mL (≈ 0.225 µM). For the same compound, the “MIC Range” value (Enterococcus faecalis) was 8 µg/mL (≈ 14.4 µM), the “MIC Range” value (Escherichia coli) was 0.03 µg/mL (≈ 0.0541 µM) and the “MIC Range” value (N. meingitidis) was 4 to 8 ng/mL. For the same compound, the MIC [4] was under 1 µg/mL, the “MIC Range” value (N. lactamica) was 0.125 µg/mL (≈ 0.225 µM) and the “MIC Range” value (N. flavescens) was 0.125 µg/mL (≈ 0.225 µM). For the same compound, the “MIC Range” value (N. mucosa) was 0.125 µg/mL (≈ 0.225 µM), the MIC (L. johnsonii; Lactobacillus johnsonii, L. johnsonii HM-643) was 2 µg/mL (≈ 3.61 µM) and the “MIC Range” value (L. johnsonii; Table 6, L. johsonii (2 strains)) was at most 1 µg/mL. For the same compound, the MIC (L. gasseri; L. gasseri HM-407) was at most 0.5 µg/mL, the MIC (L. gasseri; L. gasseri HM-642) was 2 µg/mL (≈ 3.61 µM) and the MIC (L. gasseri; L. gasseri HM-644) was 1 µg/mL (≈ 1.8 µM). The MIC (L. gasseri; L. gasseri HM-647) was 1 µg/mL (≈ 1.8 µM), the “MIC Range” value (L. gasseri; Table 6, L. gasseri (4 strains)) was at most 1 µg/mL and the PAE (N. gonorrhoeae; strain FA 1090) was 4 h. It also gave a PAE (N. gonorrhoeae; strain WHO P) of 8 h, a PAE (N. gonorrhoeae; strain WHO Y) of 6 h and an MIC ([5]; strain CDC-174, agar dilution) of 0.25 µg/mL (≈ 0.451 µM). The MIC ([5]; strain CDC-179, agar dilution) was 0.015 µg/mL (≈ 0.027 µM), the MIC ([5]; strain CDC-181, agar dilution) was 0.06 µg/mL (≈ 0.108 µM) and the MIC ([5]; strain WHO-L, agar dilution) was 0.5 µg/mL (≈ 0.902 µM). For the same compound, the MIC ([5]; strain WHO-X, agar dilution) was 2 µg/mL (≈ 3.61 µM), the MIC ([5]; strain WHO-Y, agar dilution) was 1 µg/mL (≈ 1.8 µM) and the MIC ([5]; strain WHO-Z, agar dilution) was 0.5 µg/mL (≈ 0.902 µM).
